Source: PubChem BioAssay AID2060485 (Molecular Pharmacology Branch, DTP, NCI, 2025)
Several values for one entry are separate records, joined by “and”; a condition that tells them apart may be missing. Equal values may be shown once.

System: A375 multi-cell spheroids with HUVEC/MSC, viability
Test: Anticancer human tumor A375 cell line growth inhibition [GQUAD];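 further: spheroids exposed to compounds for seven days before readout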
Details: for viability, T/C: stronger effect = lower value
Excerpt: DNA G-quadruplex Stabilizer Agents in Combinations in Complex Spheroids
A high-throughput screen of multi-cell type tumor spheroids was designed to identify active combinations of DNA G-quadruplex stabilizer agents and targeted small molecules. Complex spheroids include a stromal component modeled by human endothelial cells (HUVEC) and fibroblasts modeled by human mesenchymal stem cells (MSCs). The concentration ranges selected for each drug and investigational agent were based upon clinically achievable concentrations if the clinical Cmax of the agent was known.
Compounds. The drugs and investigational agents: pidnarulex (CX-5461; NSC782164), APTO-253 (NSC789042), BRACO-19 (NSC847499), peposertib (NSC802822), ceralasertib (NSC780249), elimusertib (NSC800525), camonsertib (NSC841442), AZD-1390 (NSC803789), olaparib (NSC753686), talazoparib (NSC767125), ART-558 (NSC835418), sotorasib (NSC818433), MRTX-1133 (NSC836407), SN-38 (NSC673596), topotecan (NSC609699), etoposide (NSC141540), doxorubicin (NSC123127), gemcitabine (NSC613327), 5-fluorouracil (NSC19893), paclitaxel (NSC125973), vemurafenib (NSC761431), panobinostat (NSC761190), R-306465 (JNJ-16241199; NSC773264), adavosertib (NSC754352), TP-3654 (NSC805149), carboplatin (NSC241240), KSQ-4279 (NSC840948), and staurosporine (NSC755774) were obtained from the National Cancer Institute (NCI) Developmental Therapeutics Program Chemical Repository (34). The FDA-approved anticancer drug set is available from the NCI Developmental Therapeutics Program. […] The stock solutions were prepared in dimethyl sulfoxide (DMSO, Sigma-Aldrich, St. Louis, MO, cat. D2650) at 800-fold the tested concentration and stored at -70 degrees C prior to their use. All drugs and investigational agents were tested over a range starting from a high concentration at or near the clinical Cmax and decreasing in half-log increments. If the clinical Cmax for an agent had not been determined, the highest concentration tested was 10 microM.
2.3 Cell Culture. All cells were maintained in an incubator at 37 degrees C and 5% CO2 with 95% humidity. The PDC lines were cultured according to standard operating procedures established by the NCI PDMR. All PDCs were thawed and cultured in Matrigel-coated flasks prepared with a working solution of 1X Ham's F-12 nutrient mix, without supplementation (Invitrogen, cat. 11765054), 100 U/mL penicillin-streptomycin (Invitrogen, cat. 15140122), and 2.5% Matrigel (Corning Inc., cat. 354248) for the first three passages. The 857933-349-R-J2-PDC line was cultured in 6C/Colon 1B media, which includes advanced DMEM/F-12 (Thermo Fisher Scientific, cat. 12634028), 10 mM HEPES (Thermo Fisher Scientific, cat. 15630080), 1X GlutaMAX supplement (Thermo Fisher Scientific, cat. 35050061), 0.1 mg/mL primocin (InvivoGen, cat. ant-pm-2), 10% defined fetal bovine serum, heat inactivated (HyClone Laboratories Inc., cat. SH30070.03HI), 50% L-WRN conditioned media (ATCC, cat. CRL-3276), 1.25 mM N-Acetyl-L-cysteine (Sigma-Aldrich, cat. A9165), 10 mM nicotinamide (Sigma-Aldrich, cat. N0636), 1X B-27 supplement (Thermo Fisher Scientific, cat. 17504044), 1X N-2 supplement (Thermo Fisher Scientific, cat. 17502048), 10 microM Y-27632 dihydrochloride (Tocris Bioscience, cat. 1254), and 50 ng/mL human EGF recombinant protein (Thermo Fisher Scientific, cat. PHG0311). The 485176-168-R4-J1-PDC line was cultured in Panc media, which includes all 6C/Colon 1B media components plus 100 ng/mL human FGF-10 (Thermo Fisher Scientific, cat. 100-26), 500 nM SB-431542 (Selleckchem, cat. S1067), and gastrin (Tocris, cat. 3006).
[…]

SMILES: CN(C)c1ccc(Nc2c3ccc(NC(=O)CCN4CCCC4)cc3nc3cc(NC(=O)CCN4CCCC4)ccc23)cc1
- viability, T/C (compound 0.0316 µM): 98.8% [middle of 12 runs]
- viability, T/C (compound 0.1 µM): 103% [middle of 12 runs]
- viability, T/C (compound 0.316 µM): 104% [middle of 12 runs]
- viability, T/C (compound 1 µM): 101% [middle of 12 runs]
- viability, T/C (compound 3.16 µM): 106% [middle of 12 runs]
- viability, T/C (compound 10 µM): 102% [middle of 12 runs]
- IC50 (compound alone, run of 03/26/2024): > 10000 nM

SMILES: CC(=O)O[C@H]1C(=O)[C@@]2(C)[C@H]([C@H](OC(=O)c3ccccc3)[C@]3(O)C[C@H](OC(=O)[C@H](O)[C@@H](NC(=O)c4ccccc4)c4ccccc4)C(C)=C1C3(C)C)[C@]1(OC(C)=O)CO[C@@H]1C[C@@H]2O
- viability, T/C (compound 0.0316 µM): 68.9% and 90.7% and 112%
- viability, T/C (compound 0.1 µM): 18.1% and 20.5% and 32.6%
- viability, T/C (compound 0.316 µM): 9.64% and 11.9% and 16.6%
- viability, T/C (compound 1 µM): 9.68% and 8.91% and 13.8%
- viability, T/C (compound 3.16 µM): 7.88% and 12.2% and 13.3%
- viability, T/C (compound 10 µM): 10.8% and 15.2% and 17.8%
- IC50 (curve of compound): 48.5 nM and 61.6 nM and 77.6 nM

SMILES: COc1ccc([C@@H](O)c2cc(-c3ncnc4cc(N5CCOCC5)ccc34)c(F)cc2Cl)nn1
- viability, T/C (compound 0.0316 µM): 97.1% and 112%
- viability, T/C (compound 0.1 µM): 107% and 117%
- viability, T/C (compound 0.316 µM): 102% and 98.3%
- viability, T/C (compound 1 µM): 101% and 103%
- viability, T/C (compound 3.16 µM): 100% and 91%
- viability, T/C (compound 10 µM): 83% and 67.6%
- IC50 (curve of compound): > 10000 nM

SMILES: O=C(c1cc(Cc2n[nH]c(=O)c3ccccc23)ccc1F)N1CCN(C(=O)C2CC2)CC1 + Cc1cnc(CNC(=O)c2c(=O)c3ccc(N4CCCN(C)CC4)nc3n3c2sc2ccccc23)cn1
- IC50 (curve of first compound, second compound 0.0316 µM): > 10000 nM
- IC50 (curve of first compound, second compound 0.1 µM): > 10000 nM
- IC50 (curve of first compound, second compound 0.316 µM): 760 nM
- IC50 (curve of first compound, second compound 1 µM): < 31.6 nM
- IC50 (curve of first compound, second compound 3.16 µM): < 31.6 nM
- IC50 (curve of first compound, second compound 10 µM): < 31.6 nM
- viability, T/C (second compound 0.0316 µM, first compound 0.0316 µM): 108%
- viability, T/C (second compound 0.0316 µM, first compound 0.1 µM): 98.9%
- viability, T/C (second compound 0.0316 µM, first compound 0.316 µM): 101%
- viability, T/C (second compound 0.0316 µM, first compound 1 µM): 95.5%
- viability, T/C (second compound 0.0316 µM, first compound 3.16 µM): 85.4%
- viability, T/C (second compound 0.0316 µM, first compound 10 µM): 68.1%
- viability, T/C (second compound 0.1 µM, first compound 0.0316 µM): 80.9%
- viability, T/C (second compound 0.1 µM, first compound 0.1 µM): 71.1%
- viability, T/C (second compound 0.1 µM, first compound 0.316 µM): 65.8%
- viability, T/C (second compound 0.1 µM, first compound 1 µM): 65.3%
- viability, T/C (second compound 0.1 µM, first compound 3.16 µM): 61.8%
- viability, T/C (second compound 0.1 µM, first compound 10 µM): 51.8%
- viability, T/C (second compound 0.316 µM, first compound 0.0316 µM): 49.5%
- viability, T/C (second compound 0.316 µM, first compound 0.1 µM): 57.8%
- viability, T/C (second compound 0.316 µM, first compound 0.316 µM): 58.6%
- viability, T/C (second compound 0.316 µM, first compound 1 µM): 48.3%
- viability, T/C (second compound 0.316 µM, first compound 3.16 µM): 45%
- viability, T/C (second compound 0.316 µM, first compound 10 µM): 42%
- viability, T/C (second compound 1 µM, first compound 0.0316 µM): 40.6%
- viability, T/C (second compound 1 µM, first compound 0.1 µM): 40.6%
- viability, T/C (second compound 1 µM, first compound 0.316 µM): 43.6%
- viability, T/C (second compound 1 µM, first compound 1 µM): 35.7%
- viability, T/C (second compound 1 µM, first compound 3.16 µM): 38%
- viability, T/C (second compound 1 µM, first compound 10 µM): 34.7%
- viability, T/C (second compound 3.16 µM, first compound 0.0316 µM): 32%
- viability, T/C (second compound 3.16 µM, first compound 0.1 µM): 36.7%
- viability, T/C (second compound 3.16 µM, first compound 0.316 µM): 43%
- viability, T/C (second compound 3.16 µM, first compound 1 µM): 31.4%
- viability, T/C (second compound 3.16 µM, first compound 3.16 µM): 30.8%
- viability, T/C (second compound 3.16 µM, first compound 10 µM): 32.7%
- viability, T/C (second compound 10 µM, first compound 0.0316 µM): 26.9%
- viability, T/C (second compound 10 µM, first compound 0.1 µM): 30.4%
- viability, T/C (second compound 10 µM, first compound 0.316 µM): 30.5%
- viability, T/C (second compound 10 µM, first compound 1 µM): 29.2%
- viability, T/C (second compound 10 µM, first compound 3.16 µM): 30.2%
- viability, T/C (second compound 10 µM, first compound 10 µM): 24.8%
